Measurements: article PMC9958137, “The cofactor-dependent folding mechanism of Drosophila cryptochrome revealed by single-molecule pulling experiments” (Nature Communications, 2023)

Biological target: T1, dCRY (Drosophila cryptochrome) (Drosophila melanogaster, UniProt O77059)
T1 construct: gene cry; full length, 542 residues; His6, N-terminal Avi tag (biotinylated) and C-terminal ybbR tag (DNA handle) kept; 558 residues with engineered linkers; FAD dialysed out for apo; only genus Drosophila given
T1 sequence (O77059 whole entry): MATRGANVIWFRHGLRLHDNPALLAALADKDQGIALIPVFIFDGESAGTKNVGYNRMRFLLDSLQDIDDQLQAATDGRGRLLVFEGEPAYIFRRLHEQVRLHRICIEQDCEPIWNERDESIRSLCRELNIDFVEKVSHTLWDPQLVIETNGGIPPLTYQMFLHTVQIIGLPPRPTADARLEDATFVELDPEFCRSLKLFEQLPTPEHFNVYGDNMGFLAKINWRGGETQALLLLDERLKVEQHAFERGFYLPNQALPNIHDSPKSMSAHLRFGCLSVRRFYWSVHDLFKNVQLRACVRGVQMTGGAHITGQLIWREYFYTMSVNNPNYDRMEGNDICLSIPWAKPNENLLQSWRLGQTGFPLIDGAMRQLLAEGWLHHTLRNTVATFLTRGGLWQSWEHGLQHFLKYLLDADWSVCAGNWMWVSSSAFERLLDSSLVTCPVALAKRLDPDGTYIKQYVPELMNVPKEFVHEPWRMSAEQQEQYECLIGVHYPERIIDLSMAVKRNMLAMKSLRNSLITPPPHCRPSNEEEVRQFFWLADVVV
Test: single-molecule optical tweezers, ligand-promoted refolding
Format: binding
Settings: 0.1 mM ligand, FAD dialysed out; refolding 20 s at 1 pN; pH 8.0; no Mg2+

Structure (SMILES)	% fully folded events at 0.1 mM
Nc1ncnc2c1ncn2[C@@H]1O[C@H](CO)[C@@H](O)[C@H]1O [adenosine]	20%
Nc1ncnc2c1ncn2[C@@H]1O[C@H](COP(=O)(O)O)[C@@H](O)[C@H]1O [AMP]	24%
Cc1cc2nc3c(=O)[nH]c(=O)nc-3n(C[C@H](O)[C@H](O)[C@H](O)CO)c2cc1C [riboflavin]	39%
Cc1cc2nc3c(=O)[nH]c(=O)nc-3n(C[C@H](O)[C@H](O)[C@H](O)COP(=O)(O)O)c2cc1C [FMN]	84%
Nc1ncnc2c1ncn2[C@@H]1O[C@H](COP(=O)(O)OP(=O)(O)O)[C@@H](O)[C@H]1O [ADP]	9%

Biological target: T1, dCRY (Drosophila cryptochrome)
Test: single-molecule optical tweezers, FAD titration of fully folded fraction
Format: binding
Settings: read-out: Kd,app

Structure (SMILES)	Kd
Cc1cc2nc3c(=O)[nH]c(=O)nc-3n(C[C@H](O)[C@H](O)[C@H](O)COP(=O)(O)OP(=O)(O)OC[C@H]3O[C@@H](n4cnc5c(N)ncnc54)[C@H](O)[C@@H]3O)c2cc1C [FAD]	0.11 ± 0.01 nM
